21 compounds from patent US12240862B2, “Inhibitors of peptidylarginine deiminases” (Gilead Sciences, Inc., priority 2020, dated 2025) can be followed below.

pIC50: −log10 of the molar value.

T1 sequence (Q9UM07 2-663): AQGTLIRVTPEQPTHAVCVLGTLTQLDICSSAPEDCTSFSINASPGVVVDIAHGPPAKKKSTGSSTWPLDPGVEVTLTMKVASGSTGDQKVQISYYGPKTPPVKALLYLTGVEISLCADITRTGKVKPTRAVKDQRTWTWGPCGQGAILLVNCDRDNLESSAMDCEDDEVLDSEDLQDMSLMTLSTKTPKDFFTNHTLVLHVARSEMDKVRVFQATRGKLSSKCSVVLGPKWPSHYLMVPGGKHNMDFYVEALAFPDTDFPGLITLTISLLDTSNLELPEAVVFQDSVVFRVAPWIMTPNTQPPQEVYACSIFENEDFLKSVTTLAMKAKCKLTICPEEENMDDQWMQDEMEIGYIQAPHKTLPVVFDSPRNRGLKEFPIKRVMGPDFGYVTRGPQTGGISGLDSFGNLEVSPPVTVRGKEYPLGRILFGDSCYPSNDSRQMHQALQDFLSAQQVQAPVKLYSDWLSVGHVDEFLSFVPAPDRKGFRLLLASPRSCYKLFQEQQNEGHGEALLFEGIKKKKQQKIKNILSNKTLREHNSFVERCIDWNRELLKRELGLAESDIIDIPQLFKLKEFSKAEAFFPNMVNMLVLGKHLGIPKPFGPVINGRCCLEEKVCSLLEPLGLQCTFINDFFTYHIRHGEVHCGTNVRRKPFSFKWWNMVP

The assay has as its target T1, human PAD4 (Homo sapiens, UniProt Q9UM07).
T1 construct: human PAD4 (NM_012387), A2P663, was PCR amplified; His-SUMO (N, cleaved yes); made in house; host or cells: E. coli BL21(DE3)
The assay can be described thus: In vitro PAD4 BAEE biochemical assay. The settings on record: human PAD4, BAEE substrate; 5 nM PAD4, 2 mM calcium chloride, 3 mM BAEE; geometric mean of multiple experiments. The gist of the method: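 Ammonia generated from BAEE serves as the readout, measured by o-phthalaldehyde after EDTA termination. Final conditions: 5 nM human PAD4 (SUMO tag cleaved), 2 mM CaCl2, 3 mM BAEE, pH 7.6 MOPS buffer, 25 °C for 2 h following a 30-min compound preincubation.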
A word on the pIC50: it is the negative decadic logarithm of the IC50, by convention in mol/L. `COc1cc(C(=O)N2CCC[C@@H](N)C2)cc2nc(-c3cc4ccc(N(C(F)F)S(C)(=O)=O)nc4n3CC3CC3)c(C)n12` [Example 388, ~{N}-[2-[7-[(3~{R})-3-aminopiperidine-1-carbonyl]-5-methoxy-3-methylimidazo [1,2-a]pyridin-2-yl]-1-(cyclopropylmethyl)pyrrolo [2,3-b]pyridin-6-yl]-~{N}-(difluoromethyl) methanesulfonamide]: the negative logarithm of the IC50 (pIC50) is 7.02.
The figure for `COc1cc(C(=O)N2[C@H]3CC[C@@H]2[C@H](N)C3)cc2nc(-c3cc4ccc([C@@H](C)NC(=O)C(C)C)nc4n3CC3CC3)c(C)n12` [Example 89, ~{N}-[(1~{R})-1-[2-[7-[(1~{R},2~{R},4~{S})-2-amino-7-azabicyclo[2.2.1]heptane-7-carbonyl]-5-methoxy-3-methylimidazo [1,2-a]pyridin-2-yl]-1-(cyclopropylmethyl)pyrrolo [2,3-b]pyridin-6-yl]ethyl]-2-methylpropanamide] is 7.40; for `COc1cc(C(=O)N2[C@H]3CC[C@@H]2[C@H](N)C3)cc2nc(-c3cc4ccc([C@@H](C)NC(=O)[C@H](C)O)nc4n3CC3CC3)c(C)n12` [Example 94, (2~{S})-~{N}-[(1~{R})-1-[2-[7-[(1~{R},2~{R},4~{S})-2-amino-7-azabicyclo [2.2.1]heptane-7-carbonyl]-5-methoxy-3-methylimidazo [1,2-a]pyridin-2-yl]-1-(cyclopropylmethyl)pyrrolo [2,3-b]pyridin-6-yl]ethyl]-2-hydroxypropanamide] it is 7.42.
The figure for `COc1cc(C(=O)N2CCC[C@@H](N)C2)cc2nc(-c3cc4ccc([C@@H](C)CC(=O)N(C)C)nc4n3CC3CC3)c(C)n12` [Example 535, (3~{S})-3-[2-[7-[(3~{R})-3-aminopiperidine-1-carbonyl]-5-methoxy-3-methylimidazo[1,2-a]pyridin-2-yl]-1-(cyclopropylmethyl)pyrrolo [2,3-b]pyridin-6-yl]-~{N},~{N}-dimethylbutanamide] is 6.52; for `COc1cc(C(=O)N2[C@H]3CC[C@@H]2[C@H](N)C3)cc2nc(-c3cc4ccc([C@@H](C)NC(=O)C5(OC)CCC5)nc4n3CC3CC3)c(C)n12` [Example 41, ~{N}-[(1~{R})-1-[2-[7-[(1~{R},2~{R},4~{S})-2-amino-7-azabicyclo [2.2.1]heptane-7-carbonyl]-5-methoxy-3-methylimidazo [1,2-a]pyridin-2-yl]-1-(cyclopropylmethyl)pyrrolo[2,3-b]pyridin-6-yl]ethyl]-1-methoxycyclobutane-1-carboxamide] it is 7.57.
Take `COc1cc(C(=O)N2[C@H]3CC[C@@H]2[C@H](N)C3)cc2nc(-c3cc4ccc([C@@H](C)NC(=O)N5CC(C)(C(=O)O)C5)nc4n3CC3CC3)c(C)n12` [Example 230, 1-[[(1~{R})-1-[2-[7-[(1~{R},2~{R},4~{S})-2-amino-7-azabicyclo[2.2.1]heptane-7-carbonyl]-5-methoxy-3-methylimidazo [1,2-a]pyridin-2-yl]-1-(cyclopropylmethyl)pyrrolo [2,3-b]pyridin-6-yl]ethyl]carbamoyl]-3-methylazetidine-3-carboxylic acid]: the pIC50 is 7.15.
Take `COc1cc(C(=O)N2[C@H]3CC[C@@H]2[C@H](N)C3)cc2nc(-c3cc4ccc(C5CCN(C(C)=O)C5)nc4n3CC3CC3)c(C)n12` (stereo partly drawn) [Example 531]: the pIC50 is 6.87.
In the case of `COc1cc(C(=O)N(C)C)cc2nc(-c3cc4ccc([C@@H](C)N(C)C(=O)c5ccccc5)nc4n3CC3CC3)c(C)n12` [Example 184, 2-[6-[(1~{R})-1-[benzoyl (methyl)amino]ethyl]-1-(cyclopropylmethyl)pyrrolo [2,3-b]pyridin-2-yl]-5-methoxy-~{N},~{N},3-trimethylimidazo[1,2-a] pyridine-7-carboxamide], the pIC50 is 4.75.
As for `COc1cc(C(=O)N2[C@H]3CC[C@@H]2[C@H](N)C3)cc2nc(-c3cc4ccc(N5CCCCCS5(=O)=O)nc4n3CC3CC3)c(C)n12` [Example 459, [(1~{R},2~{R},4~{S})-2-amino-7-azabicyclo [2.2.1]heptan-7-yl]-[2-[1-(cyclopropylmethyl)-6-(1,1-dioxothiazepan-2-yl)pyrrolo[2,3-b]pyridin-2-yl]-5-methoxy-3-methylimidazo[1,2-a]pyridin-7-yl]methanone], the pIC50 is 7.55.
The same measure for `COc1cc(C(=O)N2CCC[C@@H](N)C2)cc2nc(-c3cc4cc(F)c(Cl)cc4n3CC3CC3)c(C)n12` [Example 590, [(3~{R})-3-aminopiperidin-1-yl]-[2-[6-chloro-1-(cyclopropylmethyl)-5-fluoroindol-2-yl]-5-methoxy-3-methylimidazo[1,2-a]pyridin-7-yl]methanone]: 5.01; for `COc1cc(C(=O)N2[C@H]3CC[C@@H]2[C@H](N)C3)cc2nc(-c3cc4ccc([C@@H](C)NC(=O)N5CC(F)(F)C5)nc4n3CC3CC3)c(C)n12` [Example 232, N—((R)-1-(2-(7-((1R,2R,4S)-2-amino-7-azabicyclo[2.2.1]heptane-7-carbonyl)-5-methoxy-3-methylimidazo[1,2-a]pyridin-2-yl)-1-(cyclopropylmethyl)-1H-pyrrolo[2,3-b]pyridin-6-yl)ethyl)-3,3-difluoroazetidine-1-carboxamide]: 7.16; for `[2H]C([2H])([2H])N(c1ccc2cc(-c3nc4cc(C(=O)N5C[C@H]6CC[C@@H]5[C@@H]6N)cc(OC)n4c3C)n(CC)c2n1)S(C)(=O)=O` [Example 366, N-[2-[7-[(1R,4R,7R)-7-amino-2-azabicyclo[2.2.1]heptane-2-carbonyl]-5-methoxy-3-methyl-imidazo[1,2-a]pyridin-2-yl]-1-ethyl-pyrrolo [2,3-b]pyridin-6-yl]-N-(trideuteriomethyl) methanesulfonamide]: 6.30.
The figure for `COc1cc(C(=O)N2[C@H]3CC[C@@H]2[C@H](N)C3)cc2nc(-c3cc4ccc(C(C)C#N)nc4n3CC3CC3)c(C)n12` (stereo partly drawn) [Example 568, 2-[2-[7-[(1~{R},2~{R}, 4~{S})-2-amino-7-azabicyclo[2.2.1]heptane-7-carbonyl]-5-methoxy-3-methylimidazo[1,2-a]pyridin-2-yl]-1-(cyclopropylmethyl)pyrrolo [2,3-b]pyridin-6-yl] propanenitrile] is 6.88; for `Cc1cc(C(=O)N2CCC[C@@H](N)C2)cc2nc(-c3cc4ccc(N(C(F)F)S(C)(=O)=O)nc4n3CC3CC3)c(C)n12` [Example 426, ~{N}-[2-[7-[(3~{R})-3-aminopiperidine-1-carbonyl]-3,5-dimethylimidazo [1,2-a]pyridin-2-yl]-1-(cyclopropylmethyl)pyrrolo [2,3-b]pyridin-6-yl]-~{N}-(difluoromethyl) methanesulfonamide] it is 6.90.
The figure for `CCc1ccc2cc(-c3nc4cc(C(=O)N5CC[C@H]6OCCN[C@H]6C5)cc(OC)n4c3C)n(CC3CC3)c2n1` [Example 591, [(4~{a}~{S},8~{a}~{R})-2,3,4,4~{a},5,7,8,8~{a}-octahydropyrido[4,3-b] [1,4]oxazin-6-yl]-[2-[1-(cyclopropylmethyl)-6-ethylpyrrolo[2,3-b]pyridin-2-yl]-5-methoxy-3-methylimidazo[1,2-a]pyridin-7-yl]methanone] is 6.03.
Take `COc1cc(C(=O)N2CCC[C@@H](N)C2)cc2nc(-c3cc4ccc(-c5ccnc6c5CC(=O)N6)nc4n3CC3CC3)c(C)n12` [Example 600, 4-[2-[7-[(3~{R})-3-aminopiperidine-1-carbonyl]-5-methoxy-3-methylimidazo[1,2-a]pyridin-2-yl]-1-(cyclopropylmethyl)pyrrolo[2,3-b]pyridin-6-yl]-1,3-dihydropyrrolo[2,3-b] pyridin-2-one]: the pIC50 was 6.18.
Turning to `CCc1ccc2cc(-c3nc4cc(C(=O)N5[C@H]6CC[C@@H]5[C@H](N)C6)cc(OC)n4c3C)n(CCC3CC3)c2n1` [Example 505, [(1~{R},2~{R},4~{S})-2-amino-7-azabicyclo [2.2.1]heptan-7-yl]-[2-[1-(2-cyclopropylethyl)-6-ethylpyrrolo[2,3-b]pyridin-2-yl]-5-methoxy-3-methylimidazo[1,2-a]pyridin-7-yl]methanone], the pIC50 is 6.77.
Consider `COc1cc(C(=O)N2C[C@H](N)CC[C@@H]2C)cc2nc(-c3cc4ccc(C#N)nc4n3CC3CC3)c(C)n12` [Example 610, 2-[7-[(2~{S},5~{R})-5-amino-2-methylpiperidine-1-carbonyl]-5-methoxy-3-methylimidazo[1,2-a]pyridin-2-yl]-1-(cyclopropylmethyl) pyrrolo[2,3-b] pyridine-6-carbonitrile], for which the negative-log IC50 (pIC50) is 5.33.
The figure for `COc1cc(C(=O)N2CCC[C@@H](N)C2)cc2nc(-c3cc4ccc(OCC(N)=O)nc4n3CC3CC3)c(C)n12` [Example 621, 2-[2-[7-[(3~{R})-3-aminopiperidine-1-carbonyl]-5-methoxy-3-methylimidazo[1,2-a]pyridin-2-yl]-1-(cyclopropylmethyl)pyrrolo [2,3-b]pyridin-6-yl]oxyacetamide] is 5.99.
Turning to `COc1cc(C(=O)N[C@H]2CCCCNC2)cc2nc(-c3cc4ccc(N(C(F)F)S(C)(=O)=O)nc4n3CC3CC3)c(C)n12` [Example 296, ~{N}-[(3~{S})-azepan-3-yl]-2-[1-(cyclopropylmethyl)-6-[difluoromethyl (methylsulfonyl)amino]pyrrolo[2,3-b]pyridin-2-yl]-5-methoxy-3-methylimidazo[1,2-a]pyridine-7-carboxamide], the pIC50 was 4.61.
With `COc1cc(C(=O)NC[C@@H]2CCCN2)cc2nc(-c3cc4ccc(N(C(F)F)S(C)(=O)=O)nc4n3CC3CC3)c(C)n12` [Example 303, 2-[1-(cyclopropylmethyl)-6-[difluoromethyl (methylsulfonyl)amino]pyrrolo[2,3-b]pyridin-2-yl]-5-methoxy-3-methyl-~{N}-[[(2~{S})-pyrrolidin-2-yl]methyl] imidazo[1,2-a] pyridine-7-carboxamide], the pIC50 was 4.63.
